Experimental data published in paper PMC10354055, “An optimized Nurr1 agonist provides disease-modifying effects in Parkinson’s disease models” (Nature Communications, 2023).
“And” between values parts separate entries of the source, which are not always exact repeats. Identical values can stand only once.

Columns and labels:
[1] = system: HeLa cells; assay: Autophagolysosome (APL) formation assay, mRFP-GFP-LC3, HeLa cells; type: cell-based; settings: EBSS, BafA1 10 nM, CQ 20 µM, 4A7C-301 1 µM
Protocol: Nurr1 transactivity was normalized to β-galactosidase activity.
(§1) HeLa and N27-A cells were transfected with tandem mRFP-GFP-LC3 (Addgene) plasmid using Lipofectamine 2000 (Invitrogen) in 24-well plates. After 24 h, cells were incubated in starvation medium (Earle’s Balanced Salt Solution, EBSS; Lonza) containing bafilomycin A1 (BafA1, 10 nM), CQ (20 µM), or 4A7C-301 (1 µM) for 6 h and then fixed with 4% formaldehyde for fluorescence detection. Images were taken using a KEYENCE microscope and red (mRFP) LC3 dots and yellow (mRFP+GFP) LC3 dots were counted from three independent wells for each treatment group. 10 cells were randomly selected and counted from each well and a total of 30 cells were analyzed for each treatment group in both HeLa and N27-A cells.

[2] = system: N27-A cells; assay: Autophagolysosome (APL) formation assay, mRFP-GFP-LC3, N27-A cells; type: cell-based, rat; settings: Figure 3b; mRFP-GFP-LC3; individual cells (30 per treatment)
Protocol: as §1

[3] = system: HeLa cells; assay: Lysosomal pH detection, LysoSensor, HeLa cells; type: cell-based
Protocol: (§2) Lysosomal pH was detected as previously described. Briefly, after incubation in EBSS containing BafA1 (10 nM), CQ (20 µM), or 4A7C-301 (1 µM) for 6 h, HeLa and N27-A cells were treated with LysoSensor™ Yellow/Blue DND-160 (5 µM; Life Technology) for 45 min, followed by 2 washes in HEPES buffer (Gibco). Fluorescence images at excitation/emission wavelengths of 360/460 nm and 470/525 nm were taken immediately using a 400 nm dichroic mirror (KEYENCE). The ratio of fluorescence intensities (F360/470) were measured and calculated manually using ImageJ for each cell. The average pH from measuring 5 cells from each of three wells for each treatment group in both HeLa and N27-A cells was calculated by fitting the F360/470 values to a plotted pH calibration curve with KCl/NaCl buffered from pH 3.5 to 7.0 using GraphPad Prism (Version 8.0.2).

[4] = system: N27-A cells; assay: Lysosomal pH detection, LysoSensor, N27-A cells; type: cell-based, rat
Protocol: as §2

[5] = system: HeLa cells; assay: Autophagic flux, Western blot LC3B and p62, HeLa cells; type: cell-based; settings: for Relative LC3B-II experession (normalized to β-actin): Supplementary Figure S7f; for Relative p62 experession (normalized to β-actin): Supplementary Figure S7g
Protocol: (§3) Experiments were confirmed by duplicate measurements of the same sample. Quantification of immunoreactive bands was performed using ImageJ software (NIH, Bethesda, MD, USA) and expressed as a relative ratio against β-actin.
(§4) The band intensities were quantified using ImageJ and normalized against β-actin.

[6] = system: N27-A cells; assay: Autophagic flux, Western blot LC3B and p62, N27-A cells; type: cell-based, rat; settings: individual replicates
Protocol: as §3, §4

[7] = molecular target: T1, Nurr1-LBD (Homo sapiens, UniProt P43354); assay: [3H]-CQ radioligand competition binding assay; settings: Fig. 1h
T1 sequence (P43354 360-595 limits assumed, species assumed): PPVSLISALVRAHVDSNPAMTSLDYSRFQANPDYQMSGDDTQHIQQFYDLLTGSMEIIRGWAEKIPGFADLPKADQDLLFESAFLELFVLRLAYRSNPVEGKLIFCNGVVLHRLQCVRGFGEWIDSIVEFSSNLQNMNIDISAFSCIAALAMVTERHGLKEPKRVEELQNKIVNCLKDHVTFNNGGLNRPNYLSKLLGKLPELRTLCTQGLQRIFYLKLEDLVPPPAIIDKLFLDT
Protocol: Saturation and competition assays were performed as previously described. For saturation assay, 0.2 µM of Nurr1-LBD and 125-10,000 nM of [^3H]-CQ were incubated in binding buffer (20 mM sodium acetate buffer (pH 5.2)) at 4 °C overnight. […] Assay mixtures were applied to GF/B filters (Brandel Inc.) to capture Nurr1-LBD bounded ligands. […] All graphs and IC50 values were generated using the non-linear regression program in GraphPad Prism version 8.0.2.

[8] = molecular target: T1, Nurr1-LBD; assay: TR-FRET competition assay with HCQFluo; type: binding; settings: Fig. 1i
Protocol: TR-FRET assay was performed in PPI Terbium (Tb) detection buffer (PerkinElmer) and contained 0.2 µM of Nurr1-LBD, 0.5 µM of fluorescence-labeled hydroxy-CQ (HCQFluo; Proimaging) and serial concentrations of CQ, 4A7C-301 or RA (10^−4–10^6 nM). Rabbit anti-Nurr1 antibody (3 nM; prepared in our lab) and anti-rabbit IgG-Tb (1:400; Cisbio, 61PARTAF) were included in the assay solution as a donor complex. Assay solutions were loaded in a 384-well OptiPlate™ (PerkinElmer). After 2 h incubation in the dark at room temperature, the FRET signal was measured by excitation at 340 nm and emission at 520 nm for fluorescein and 495 nm for Tb using a VICTOR Nivo plate reader (PerkinElmer). Data were fit using the non-linear regression program in GraphPad Prism version 8.0.2.

## CO/C1=C\C(C)=C\[C@@H](C)[C@@H](O)[C@@H](C)C/C(C)=C/C=C/[C@H](OC)[C@@H]([C@@H](C)[C@@H](O)[C@H](C)[C@@]2(O)C[C@@H](O)[C@H](C)[C@@H](C(C)C)O2)OC1=O [BafA1, bafilomycin A1]
[1]
  APL formation / autophagy (in words): completely inhibited
[2]
  LC3 dots/cell, Red LC3 dots: 1 dots/cell (14×) and 2 dots/cell (6×) and 0 dots/cell (8×) and 5 dots/cell and 3 dots/cell
  LC3 dots/cell, Yellow LC3 dots: 28 dots/cell (2×) and 29 dots/cell (3×) and 21 dots/cell and 37 dots/cell (2×) and 20 dots/cell and 41 dots/cell (2×) and 27 dots/cell (2×) and 31 dots/cell (6×) and 18 dots/cell and 32 dots/cell and 40 dots/cell (2×) and 38 dots/cell and 33 dots/cell and 36 dots/cell and 24 dots/cell and 22 dots/cell and 30 dots/cell and 23 dots/cell
[3]; HeLa, BafA1 10 nM, CQ 20 µM, 4A7C-301 1 µM
  lysosomal pH (in words): significantly increased
[3]; Supplementary Figure S7d, individual replicates
  Lysosomal pH: 6.632 and 6.371 and 6.762 and 6.208 and 6.436 and 6.697 and 6.241 and 7.055 and 6.469 and 6.827 and 6.045
[4]; Figure 3d, individual replicates
  Lysosomal pH: 6.143 and 6.404 and 6.371 and 6.241 and 6.729 and 6.827 and 6.567 and 6.11 and 6.469 and 6.925 and 6.664 and 6.078 and 6.045
[4]; N27-A, BafA1 10 nM, CQ 20 µM, 4A7C-301 1 µM
  lysosomal pH (in words): significantly increased
[5]; HeLa, LC3B-II and p62
  autophagic flux (in words): failed to terminate
[5]; time 0h
  Relative LC3B-II experession (normalized to β-actin): 0.339 and 0.384 and 0.423
  Relative p62 experession (normalized to β-actin): 0.909 and 0.809 and 0.904
[5]; time 0.5h
  Relative LC3B-II experession (normalized to β-actin): 0.689 and 0.867 and 0.926
  Relative p62 experession (normalized to β-actin): 0.781 and 0.847 and 0.974
[5]; time 1h
  Relative LC3B-II experession (normalized to β-actin): 0.885 and 1.051 and 1.126
  Relative p62 experession (normalized to β-actin): 0.754 and 0.822 and 0.940
[5]; time 2h
  Relative LC3B-II experession (normalized to β-actin): 0.981 and 1.172 and 1.156
  Relative p62 experession (normalized to β-actin): 0.804 and 0.850 and 0.987
[5]; time 4h
  Relative LC3B-II experession (normalized to β-actin): 1.098 and 1.172 and 1.288
  Relative p62 experession (normalized to β-actin): 0.978 and 0.992 and 1.169
[6]; Figure 3f, w/ MPP+, 0h
  Relative LC3B-II experession (normalized to β-actin): 0.733 and 0.699 and 0.753
[6]; Figure 3f, w/ MPP+, 4h
  Relative LC3B-II experession (normalized to β-actin): 1.710 and 1.577 and 1.762
[6]; Figure 3f, w/o MPP+, 0h
  Relative LC3B-II experession (normalized to β-actin): 0.546 and 0.525 and 0.431
[6]; Figure 3f, w/o MPP+, 4h
  Relative LC3B-II experession (normalized to β-actin): 1.603 and 1.576 and 1.411
[6]; Figure 3g, w/ MPP+, 0h
  Relative LC3B-II experession (normalized to β-actin): 1.449 and 1.354 and 1.694
[6]; Figure 3g, w/ MPP+, 4h
  Relative LC3B-II experession (normalized to β-actin): 1.439 and 1.341 and 1.659
[6]; Figure 3g, w/o MPP+, 0h
  Relative LC3B-II experession (normalized to β-actin): 1.447 and 1.262 and 1.249
[6]; Figure 3g, w/o MPP+, 4h
  Relative LC3B-II experession (normalized to β-actin): 1.807 and 1.586 and 1.554

## CC1=C(/C=C/C(C)=C/C=C/C(C)=C/C(=O)O)C(C)(C)CCC1 [RA, Retinoic acid]
[7]; competitor conc. 0.0001 (µM)
  % of Specific binding: 87.8740% and 90.3786% and 97.0000%
[7]; competitor conc. 0.001 (µM)
  % of Specific binding: 101.4488% and 96.8455% and 90.6575%
[7]; competitor conc. 0.01 (µM)
  % of Specific binding: 93.0895% and 89.2521% and 94.1409%
[7]; competitor conc. 0.1 (µM)
  % of Specific binding: 82.0986% and 95.6235% and 83.0156%
[7]; competitor conc. 1 (µM)
  % of Specific binding: 87.3597% and 82.6821% and 79.1883%
[7]; competitor conc. 10 (µM)
  % of Specific binding: 63.0000% and 75.1862% and 67.5572%
[7]; competitor conc. 100 (µM)
  % of Specific binding: 42.2356% and 49.1037% and 43.9315%
[7]; competitor conc. 1000 (µM)
  % of Specific binding: 32.2111% and 35.0331% and 30.1369%
[7]; competitor conc. 10000 (µM)
  % of Specific binding: 18.6132% and 23.0315% and 23.7161%
[7]; competitor conc. 100000 (µM)
  % of Specific binding: 12.2908% and 10.3348% and 16.3962%
[7]; competitor conc. 1000000 (µM)
  % of Specific binding: 8.1147% and 11.0894% and 7.4333%
[8]; 0.05 µM
  Interaction [HTRF]: 2835.2000 and 2760.8790 and 2798.0390
[8]; 0.1 µM
  Interaction [HTRF]: 2218.7830 and 2060.7720 and 2139.7770
[8]; 0.5 µM
  Interaction [HTRF]: 1239.9030 and 1522.7770 and 1381.3400
[8]; 1 µM
  Interaction [HTRF]: 1217.7040 and 1012.7510 and 1115.2270
[8]; 5 µM
  Interaction [HTRF]: 750.0158 and 977.4576 and 863.7367
[8]; 10 µM
  Interaction [HTRF]: 824.6545 and 715.3943 and 770.0244
[8]; 50 µM
  Interaction [HTRF]: 734.0843 and 751.1574 and 742.6208
[8]; 100 µM
  Interaction [HTRF]: 637.6497 and 793.8474 and 715.7485
[8]; 200 µM
  Interaction [HTRF]: 603.5579 and 705.9392 and 654.7485
